Columns and labels:
Foxp3 in iTreg cells = assay: In vitro dose response and mechanism study in WT, Usp22-null and Usp21-null Treg cells; format: cell-based, murine
Protocol: (§1) FIG. 15: Usp22i-S02 halts Usp22-mediated Foxp3 deubiquitination. A, Graphical representation of Foxp3 MFI change in WT versus 22KO iTreg cells treated with various doses of Usp22i-S02 (n=3). B, Representative histogram of Foxp3 MFI level in iTreg cells as Usp22 inhibitor concentration increases from 0-20 μg/mL. C, Cell survival of iTreg cells treated with various doses of Usp22i-S02 (n=3). D, FOXP3 and USP22 protein level in WT and 22KO mice treated with 10 μg/mL Usp22i-S02. E-F, Graphical and representative data of Foxp3 MFI of human Treg cells treated with various doses of Usp22i-S02 (n=3). G, Graphical representation of Foxp3 MFI in WT, Usp21-null, and Usp22-null Treg cells treated with Usp22i-S02 at 10 μg/mL (n=3). H, FOXP3 and USP22 protein degradation of cycloheximide (10 μg/mL) treated iTreg cells with or without the addition of 10 μg/mL of Usp22i-S02. I-J, Endogenous DUB assay IP in iTreg cells of USP22 with FOXP3 under increasing concentrations of Usp22i-S02. K, Foxp3 mRNA level in iTreg cells as Usp22 inhibitor concentration increases from 0-20 μg/mL (n=3). L, FOXP3 and USP22 level in WT iTreg cells with or without 20 μg/mL Usp22 inhibitor treated with 20 μM MG132. M, Graphical representation of the percentage of decrease of Foxp3 MFI in either WT or Usp22-null nTreg cells placed in low glucose conditions with or without the addition of 10 μg/mL of Usp22i-S02 (n=7-8). N, Graphical representation of the percentage of decrease of Foxp3 MFI in WT nTreg cells placed in hypoxic or low amino acid conditions with or without the addition of 10 μg/mL of Usp22i-S02 (n=3-5). G, Two-tailed unpaired t-test comparing within groups was performed to determine statistical significance. K, One-way ANOVA with Dunnet's multiple comparisons between rows relative to control was performed to determine statistical significance. M-N, Two-way ANOVA with Sidak's multiple comparisons between rows was performed to determine statistical significance. All data are presented as mean±stdev. NS, not significant. *P<0.05, **P<0.01, ***P<0.001, ****P<0.0001.
After initial screening, we ran an in vitro dose response study on compound S02, now dubbed Usp22i-S02, in both WT and Usp22-null iTreg cells (FIG. 15A-C).
All nTreg and iTreg cells were plated as described above DMOG (Sigma Catalog #D3695) was administered to the cells in relevant experiments at 1 mM for 24 hours. Oligomycin (Sigma Catalog #75351) was administered at 1 μM to the media of the cells in relevant experiments for 24 hours. Torin 1 (Millipore Catalog #475991) was administered to the relevant cells at 250 nM for 24 hours. FOXP3 protein level was assessed via flow cytometry following […] of treatment of inhibitors described above. In vitro administration of Usp22i-S02 was at 10 ug/mL.

[1] = tested on: Foxp3 in human Treg cells; assay: Foxp3 MFI of human Treg cells treated with Usp22i-S02; format: cell-based; conditions: low doses
Protocol: as §1, with “N, Graphical representation of the percentage of decrease of Foxp3 MFI in WT nTreg cells placed in hypoxic or low amino acid conditions with or without the addition of 10 μg/mL of Usp22i-S02 (n=3-5). G, Two-tailed unpaired t-test comparing within groups was performed to determine statistical significance. K, One-way ANOVA with Dunnet's multiple comparisons between rows relative to control was performed to determine statistical significance. M-N, Two-way ANOVA with Sidak's multiple comparisons between rows was performed to determine statistical significance. All data are presented as mean±stdev. NS, not significant. *P<0.05, **P<0.01, ***P<0.001, ****P<0.0001.” left out

Q: With `N#Cc1c2c(c(Nc3ccccc3)n3c1nc1ccccc13)CCCC2` [Chemical S02, 11-anilino-7,8,9,10-tetrahydro-benzimidazo [1,2-b] isoquinoline-6-carbonitrile] as the compound, how does the “viability of iTreg cells” value (Foxp3 in iTreg cells; 10 μg/mL) read?
A: Its value is “little effect on viability”.

Q: And the “effect on Foxp3 in iTreg cells lacking Usp21” value (Foxp3 in iTreg cells; Usp21-null iTreg cells, 10 μg/mL)?
A: The value was “full effect”.

Q: And the “Foxp3 MFI and protein level” value (Foxp3 in iTreg cells; WT iTreg cells, 10 μg/mL)?
A: Its value is “decreases in Foxp3 MFI and protein level comparable to Usp22-null iTreg cells”.

Q: And the “Foxp3 stability under glucose starvation” value (Foxp3 in iTreg cells; WT nTreg cells, low glucose, 10 μg/mL)?
A: Its value is “significantly diminished Foxp3 stability”.

Q: And the FOXP3 degradation (Foxp3 in iTreg cells; cycloheximide (CHX) treated iTreg cells)?
A: Its FOXP3 degradation is “enhanced FOXP3 degradation”.

Q: And the Foxp3 transcription (Foxp3 in iTreg cells; iTreg cells, Foxp3 mRNA, 0-20 μg/mL)?
A: The Foxp3 transcription was “decreased Foxp3 transcription”.

Q: What about the FOXP3 ubiquitination (Foxp3 in iTreg cells; iTreg cells, endogenous DUB assay IP) of the same compound?
A: Its FOXP3 ubiquitination is “increased FOXP3 ubiquitination”.

Q: And the “FOXP3 levels in Treg cells lacking Usp22” value (Foxp3 in iTreg cells; murine Treg cells lacking Usp22, in vivo and in vitro)?
A: Its value is “minimal effect on FOXP3 levels”.

Q: What about the “Foxp3 MFI” value [1] of the same compound?
A: Its value is “significantly decreased Foxp3 MFI”.

Q: What about the cell viability [1] of the same compound?
A: Its cell viability is “little effect to cell viability”.
